Measurements taken from article PMC7503713, “GANT61 Reduces Hedgehog Molecule (GLI1) Expression and Promotes Apoptosis in Metastatic Oral Squamous Cell Carcinoma Cells” (International Journal of Molecular Sciences, 2020).

Test system: PTCH1 mRNA
Experiment: qPCR of HH pathway gene expression in HSC3 cells, PTCH1
Format: cell-based, human
Conditions: HSC3, 36 µM, 12 h, not significant
Procedure: For total RNA isolation, HSC3 cells were plated on 6-well plates, at a density of 0.7 × 10^5 cells/mL (5 mL/well volume), and incubated overnight, followed by treatment with the GLI inhibitor for 12 h at both concentrations (18 and 36 µM).
All experiments were carried out under DNAse/RNAse-free conditions. Silica microcolumns were used for RNA extraction, using an RNeasy Plus Mini Kit (QIAGEN, Hilden, Germany). Extracted RNA was analyzed for quantity and purity, using a NanoDrop®® 1000 spectrophotometer (Thermo Fisher Scientific, Waltham, MA, USA).
Reverse transcription was performed by using Superscript VILO™ transcriptase enzyme (Invitrogen, Carlsbad, CA, USA). The cDNA samples were stored at −20 °C, until the time of use.
HH pathway component expression was evaluated in cells treated or not with GANT61 by qPCR, using TaqMan Gene Expression Assays^TM inventoried for the PTCH1 (Hs00181117_m1), GLI1 (Hs01110766_m1), GLI2 (Hs01119974_m1), and GLI3 (Hs00609233_m1) genes, as well as for B2 M (Hs99999907_m1). […]
Following amplification and dissociation runs, quantification cycle (Cq) values were obtained by using the ViiA7^TM System Operational Program (AppliedByosistems, Foster City, CA, USA). For relative quantification, the comparative method (2−∆∆Cq) described by Livak and Schmittgen, 2001 was used. […]

## CN(C)c1ccccc1CN1CCCN(Cc2ccccc2N(C)C)C1c1ccncc1 [GANT61]
  mRNA expression of PTCH1: Reductions in mRNA expression
